Source: ChEMBL document CHEMBL6103618, “Discovery of Novel Oxazolo[4,3-f]purine Derivatives as Antitumor Agents through PPIA Interaction” (J Med Chem, 2025)
The source made the active and inactive calls. The calls are words filed in the database; no cut-off is given here.

Assays:
HCT-116 [1] = assay: Induction of mitochondrial dysfunction in human HCT-116 cells at 0.3 to 1.2 uM by JC-1 dye based analysis; type: functional, cell-based; details: dose 0.3-1.2 µM
HCT-116 [2] = assay: Induction of intracellular ROS generation in human HCT-116 cells at 1.2 uM in presence of NAC by flow cytometry; type: functional, cell-based
HCT-116 [3] = assay: Induction of ER stress in human HCT-116 cells assessed as increase in ATF4 level at 0.3 to 1.2 uM by Western blot analysis; type: functional, cell-based; details: dose 0.3-1.2 µM
HCT-116 [4] = assay: Induction of apoptosis in human HCT-116 cells harboring siNC assessed as early apoptotic cells at 1.2 uM by Annexin V-FITC/PI staining based flow cytometry (reference value: 1.52 %); type: functional
HCT-116 [5] = assay: Induction of cell cycle arrest in human HCT-116 cells assessed as accumulation at S phase at 1.2 uM incubated for 48 hrs by PI staining based flow cytometry (reference value: 34.55 %); type: functional
HCT-116 [6] = assay: Induction of cell cycle arrest in human HCT-116 cells assessed as accumulation at G1 phase at 0.6 uM incubated for 48 hrs by PI staining based flow cytometry (reference value: 59.37 %); type: functional
[7] = Toxicity in BALB/c mouse implanted with mouse CT26 cells assessed as abnormality in lung at 15 to 45 mg/kg, ip qd treated for 14 days by H and E staining based analysis; type: organism-based; details: in vivo, 336 h, dose 15-45 mg/kg, time 14 day
[8] = target: T1, Peptidyl-prolyl cis-trans isomerase A (Homo sapiens, UniProt P62937); assay: Binding affinity to PPIA in human HCT-116 cells assessed as increase in thermal stability at 16 uM incubated for 30 mins followed by heat exposure at 40 to 60 degreeC for 3 mins by CETSA; type: cell-based; details: time 33.0 min
Target sequence in this assay (P62937 whole entry, looked up): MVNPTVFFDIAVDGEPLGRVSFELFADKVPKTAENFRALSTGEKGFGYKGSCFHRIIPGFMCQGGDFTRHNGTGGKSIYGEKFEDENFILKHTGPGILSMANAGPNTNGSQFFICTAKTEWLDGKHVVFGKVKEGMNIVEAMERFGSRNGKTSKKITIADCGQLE

[9] = target: T1, Peptidyl-prolyl cis-trans isomerase A; assay: Binding affinity to CM5 chip-immobilized PPIA (unknown origin) assessed as dissociation constant by SPR analysis
Target sequence in this assay (P62937 whole entry): as the sequence (P62937 whole entry, looked up) above

HCT-116 [10] = assay: Effect on VCP expression in human HCT-116 cells upto 6 uM incubated for 30 mins followed by pronase addition measured after 30 mins by DARTS assay; type: functional, cell-based
HCT-116 [11] = assay: Effect on COTL1 expression in human HCT-116 cells upto 6 uM incubated for 30 mins followed by pronase addition measured after 30 mins by DARTS assay; type: functional, cell-based
HCT-116 [12] = assay: Induction of apoptosis in human HCT-116 cells harboring siPPIA-3 assessed as viable cells at 1.2 uM by Annexin V-FITC/PI staining based flow cytometry (reference value: 87.9 %); type: functional; details: read-out: Activity
[13] = target: T1, Peptidyl-prolyl cis-trans isomerase A; assay: Binding affinity to PPIA in human HCT-116 cells assessed as protein stability incubated for 30 mins followed by pronase addition measured after 30 mins by DARTS assay; type: cell-based; details: dose <= 6.0 µM, time 60.0 min
Target sequence in this assay (P62937 whole entry, looked up): as above

HCT-116 [14] = assay: Induction of cell cycle arrest in human HCT-116 cells assessed as accumulation at S phase at 0.6 uM incubated for 48 hrs by PI staining based flow cytometry (reference value: 34.55 %); type: functional
HCT-116 [15] = assay: Induction of apoptosis in human HCT-116 cells assessed as late apoptotic cells at 0.6 uM incubated for 48 hrs by Annexin V-FITC/PI staining based flow cytometry (reference value: 1.55 %); type: functional
HCT-116 [16] = assay: Effect on SRSF7 expression in human HCT-116 cells upto 6 uM incubated for 30 mins followed by pronase addition measured after 30 mins by DARTS assay; type: functional, cell-based
HCT-116 [17] = assay: Induction of apoptosis in human HCT-116 cells assessed as early apoptotic cells at 0.3 uM incubated for 48 hrs by Annexin V-FITC/PI staining based flow cytometry (reference value: 1.12 %); type: functional
HCT-116 [18] = assay: Induction of mitochondrial dysfunction in human HCT-116 cells at 0.3 to 1.2 uM incubated for 48 hrs by Mito-Tracker Green probe based analysis; type: functional, cell-based; details: dose 0.3-1.2 µM
CT26 [19] = assay: Antitumor activity against mouse CT26 cells implanted in BALB/c mouse assessed as reduction in tumor weight administered intraperitoneally once daily for 14 days; type: functional; details: dose 15-45 mg/kg, route ip, time 14.0 day
HCT-116 [20] = assay: Anti-proliferative activity against human HCT-116 cells harboring siPPIA-3 assessed as decrease in p-p38 level at 1.2 uM by Western blot analysis; type: functional, cell-based
HCT-116 [21] = assay: Induction of apoptosis in human HCT-116 cells assessed as late apoptotic cells at 1.2 uM incubated for 48 hrs by Annexin V-FITC/PI staining based flow cytometry (reference value: 1.55 %); type: functional
HCT-116 [22] = assay: Anti-proliferative activity against human HCT-116 cells harboring siNC assessed as decrease in p-ERK1/2 level at 1.2 uM by Western blot analysis; type: functional, cell-based
HCT-116 [23] = assay: Induction of apoptosis in human HCT-116 cells assessed as increase in cleaved caspase-3 level at 0.3 to 1.2 uM incubated for 48 hrs by Western blot analysis; type: functional, cell-based; details: dose 0.3-1.2 µM
HCT-116 [24] = assay: Induction of ER stress in human HCT-116 cells assessed as increase in CHOP level at 0.3 to 1.2 uM by Western blot analysis; type: functional, cell-based; details: dose 0.3-1.2 µM
CT26 [25] = assay: Antiproliferative activity against mouse CT26 cells assessed as inhibition of cell viability incubated for 48 hrs by CCK8 assay; type: functional, cell-based; details: CT26, 48 h
[26] = Toxicity in BALB/c mouse implanted with mouse CT26 cells assessed as change in body weight at 15 to 45 mg/kg, ip qd treated for 14 days; type: organism-based; details: in vivo, 336 h, dose 15-45 mg/kg, time 14 day
[27] = Toxicity in BALB/c mouse implanted with mouse CT26 cells assessed as injury in liver at 15 to 45 mg/kg, ip qd treated for 14 days by H and E staining based analysis; type: organism-based; details: in vivo, 336 h, dose 15-45 mg/kg, time 14 day
HCT-116 [28] = assay: Inhibition of cell viability in human HCT-116 cells at 0.3 to 1.2 uM incubated for 48 hrs in presence of NAC; type: functional, cell-based; details: dose 0.3-1.2 µM
CT26 [29] = assay: Antitumor activity against mouse CT26 cells implanted in BALB/c mouse assessed as decrease in Ki67 level at 15 to 45 mg/kg, ip qd treated for 14 days by IHC analysis; type: functional, organism-based; details: dose 15-45 mg/kg, time 14.0 day
HCT-116 [30] = assay: Induction of ER stress in human HCT-116 cells assessed as increase in PERK level at 0.3 to 1.2 uM by Western blot analysis; type: functional, cell-based; details: dose 0.3-1.2 µM
HCT-116 [31] = assay: Induction of apoptosis in human HCT-116 cells harboring siPPIA-3 assessed as late apoptotic cells at 1.2 uM by Annexin V-FITC/PI staining based flow cytometry (reference value: 3.44 %); type: functional
HCT-116 [32] = assay: Induction of intracellular ROS generation in human HCT-116 cells harboring siPPIA-3 at 1.2 uM by flow cytometry (reference value: 15.4 %); type: functional
[33] = Toxicity in BALB/c mouse implanted with mouse CT26 cells assessed as abnormality in kidney at 15 to 45 mg/kg, ip qd treated for 14 days by H and E staining based analysis; type: organism-based; details: in vivo, 336 h, dose 15-45 mg/kg, time 14 day
HepG2 = assay: Antiproliferative activity against human HepG2 cells assessed as inhibition of cell viability incubated for 48 hrs by CCK8 assay; type: functional, cell-based; details: HepG2, 48 h
HCT-116 [34] = assay: Induction of cell cycle arrest in human HCT-116 cells assessed as decrease in cyclin A2 level incubated for 48 hrs by Western blot analysis; type: functional, cell-based; details: dose 0.3-1.2 µM

Question: With C=C(C(=O)OC)N1c2nc(Cl)nc(Cl)c2N2C(c3ccccc3F)OC(C(=O)OCC)(C(=O)OCC)C12 (racemic) as the molecule, how does the Activity (HCT-116 [1]) read?
Answer: Its Activity is “Active”.

Question: What about the Activity (HCT-116 [2]) of the same molecule?
Answer: Its Activity is “inactive”.

Question: What about the Activity (HCT-116 [3]) of the same molecule?
Answer: The Activity was “Active”.

Question: And the Activity (HCT-116 [4])?
Answer: Its Activity is 16.8%.

Question: What about the Activity (HCT-116 [5]) of the same molecule?
Answer: The Activity was 28.16%.

Question: What about the Activity (HCT-116 [6]) of the same molecule?
Answer: Its Activity is 66.32%.

Question: What about the Activity [7] of the same molecule?
Answer: Its Activity is “Non-toxic”.

Question: What about the Activity [8] of the same molecule?
Answer: Its Activity is “Active; Activity Similar To Csa”.

Question: And the Kd [9]?
Answer: Its Kd is 520 nM.

Question: What about the Activity (HCT-116 [10]) of the same molecule?
Answer: The Activity was “No effect”.

Question: And the Activity (HCT-116 [11])?
Answer: Its Activity is “No effect”.

Question: And the viability at 1.2 µM (HCT-116 [12])?
Answer: The viability at 1.2 µM was 87%.

Question: What about the Activity [13] of the same molecule?
Answer: Its Activity is “Dose-dependent-effect”.

Question: What about the Activity (HCT-116 [14]) of the same molecule?
Answer: Its Activity is 28.97%.

Question: And the Activity (HCT-116 [15])?
Answer: The Activity was 5.53%.

Question: And the Activity (HCT-116 [16])?
Answer: The Activity was “No effect”.

Question: And the Activity (HCT-116 [17])?
Answer: Its Activity is 11.7%.

Question: What about the Activity (HCT-116 [18]) of the same molecule?
Answer: The Activity was “Active”.

Question: What about the Activity (CT26 [19]) of the same molecule?
Answer: The Activity was “Dose-dependent-effect”.

Question: What about the Activity (HCT-116 [20]) of the same molecule?
Answer: The Activity was “inactive”.

Question: What about the Activity (HCT-116 [21]) of the same molecule?
Answer: Its Activity is 8.35%.

Question: What about the Activity (HCT-116 [22]) of the same molecule?
Answer: The Activity was “Active”.

Question: What about the Activity (HCT-116 [23]) of the same molecule?
Answer: The Activity was “Active”.

Question: What about the Activity (HCT-116 [24]) of the same molecule?
Answer: The Activity was “Active”.

Question: And the IC50 (CT26 [25])?
Answer: Its IC50 is 860 nM.

Question: What about the Activity [26] of the same molecule?
Answer: Its Activity is “Non-toxic”.

Question: What about the Activity [27] of the same molecule?
Answer: Its Activity is “Non-toxic”.

Question: And the inhibition (HCT-116 [28])?
Answer: The inhibition was “inactive”.

Question: And the Activity (CT26 [29])?
Answer: Its Activity is “Active”.

Question: And the Activity (HCT-116 [30])?
Answer: Its Activity is “Active”.

Question: What about the Activity (HCT-116 [31]) of the same molecule?
Answer: The Activity was 3.25%.

Question: And the Activity (HCT-116 [32])?
Answer: Its Activity is 16.8%.

Question: And the Activity [33]?
Answer: Its Activity is “Non-toxic”.

Question: And the IC50 (HepG2)?
Answer: The IC50 was 2160 nM.

Question: And the Activity (HCT-116 [34])?
Answer: The Activity was “Dose-dependent-effect”.
